Results as given in PubChem BioAssay (NCI).
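Five compound concentrations were applied to cells in 96-well plates for 48 hours; endpoints were derived by simple linear interpolation of the resulting dose-response curve. TGI marks complete inhibition of growth.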

Key:
Test in all cases: inhibition of tumour cell growth, NCI panel, 48 h
[1] = system: COLO 205 colon
[2] = system: HT29 colon
[3] = system: OVCAR-8 ovarian
[4] = system: HCC-2998 colon
[5] = system: 786-0 renal
[6] = system: SN12C renal
[7] = system: SR leukemia
[8] = system: ACHN renal
[9] = system: HOP-62 NSCLC
[10] = system: SK-MEL-2 melanoma
[11] = system: SF-295 CNS

Q: With Cc1cc(NS(=O)(=O)c2ccc(NO)cc2)no1 as the compound, how does the TGI [1] read?
A: The TGI was > 100 µM.

Q: And the TGI [2]?
A: Its TGI is > 100 µM.

Q: And the TGI [3]?
A: The TGI was > 100 µM.

Q: And the TGI [4]?
A: The TGI was > 100 µM.

Q: What about the TGI [5] of the same compound?
A: Its TGI is > 100 µM.

Q: What about the TGI [6] of the same compound?
A: Its TGI is 43 µM.

Q: And the TGI [7]?
A: The TGI was 46.2 µM.

Q: What about the TGI [8] of the same compound?
A: Its TGI is > 100 µM.

Q: And the TGI [9]?
A: The TGI was > 100 µM.

Q: And the TGI [10]?
A: Its TGI is > 100 µM.

Q: What does the source list for O=c1ccn(C/C=C/c2ccccc2)c(=S)n1C/C=C/c1ccccc1?
A: TGI [1]: > 100 µM; TGI [2]: > 100 µM; TGI [3]: > 100 µM; TGI [4]: > 100 µM; TGI [5]: > 100 µM; TGI [6]: > 100 µM; TGI [7]: > 100 µM; TGI [11]: > 100 µM; TGI [8]: > 100 µM; TGI [9]: > 100 µM; TGI [10]: > 100 µM

Q: What does the source list for CC1(C)CC(=O)c2c(-c3ccc(Cl)cc3)c(C#N)c(=S)n(C3OC(CO)C(O)C(O)C3O)c2C1 (stereo not drawn)?
A: TGI [1]: 92.8 µM; TGI [2]: > 100 µM; TGI [3]: > 100 µM; TGI [4]: > 100 µM; TGI [5]: > 100 µM; TGI [6]: > 100 µM; TGI [7]: > 100 µM; TGI [11]: > 100 µM; TGI [8]: > 100 µM; TGI [9]: > 100 µM; TGI [10]: 43.9 µM

Q: O=C1CSC(c2ccccc2)N1c1ccc(-c2ccc(-n3c(-c4ccccc4)nc4ccccc4c3=O)cc2)cc1 (stereo not drawn) was tested. Which TGI [1] did it give?
A: The TGI was > 100 µM.

Q: What about the TGI [2] of the same compound?
A: The TGI was > 100 µM.

Q: What about the TGI [3] of the same compound?
A: Its TGI is > 100 µM.

Q: And the TGI [4]?
A: Its TGI is > 100 µM.

Q: What about the TGI [5] of the same compound?
A: Its TGI is > 100 µM.

Q: What about the TGI [6] of the same compound?
A: Its TGI is > 100 µM.

Q: And the TGI [7]?
A: Its TGI is > 100 µM.

Q: What about the TGI [11] of the same compound?
A: Its TGI is > 100 µM.

Q: And the TGI [8]?
A: The TGI was > 100 µM.

Q: And the TGI [9]?
A: Its TGI is > 100 µM.

Q: And the TGI [10]?
A: The TGI was > 100 µM.

Q: Which TGI [1] does the source give for CC(=O)N1C(c2[nH]c3ccccc3c2Cc2ccccc2)CCN1c1ccccc1 (stereo not drawn) here?
A: Its TGI is > 10 µM.

Q: And the TGI [2]?
A: The TGI was > 10 µM.

Q: And the TGI [3]?
A: The TGI was > 10 µM.

Q: And the TGI [4]?
A: The TGI was > 10 µM.

Q: What about the TGI [5] of the same compound?
A: Its TGI is > 10 µM.

Q: And the TGI [6]?
A: The TGI was > 10 µM.

Q: What about the TGI [7] of the same compound?
A: The TGI was > 10 µM.

Q: What about the TGI [11] of the same compound?
A: Its TGI is > 10 µM.

Q: And the TGI [8]?
A: Its TGI is > 10 µM.

Q: And the TGI [9]?
A: The TGI was > 10 µM.

Q: And the TGI [10]?
A: The TGI was > 10 µM.

Q: How did the TGI [1] turn out when CN(C)c1n2c3ccc([N+](=O)[O-])cc3n3c(N(C)C)[n+]4ccccc4c3c2c2cccc[n+]12 was run?
A: The TGI was > 100 µM.

Q: And the TGI [2]?
A: The TGI was > 100 µM.

Q: And the TGI [3]?
A: The TGI was > 100 µM.

Q: And the TGI [4]?
A: The TGI was > 100 µM.

Q: What about the TGI [5] of the same compound?
A: The TGI was > 100 µM.

Q: What about the TGI [6] of the same compound?
A: The TGI was > 100 µM.

Q: And the TGI [7]?
A: The TGI was > 100 µM.

Q: What about the TGI [11] of the same compound?
A: Its TGI is > 100 µM.

Q: What about the TGI [8] of the same compound?
A: Its TGI is > 100 µM.

Q: What about the TGI [9] of the same compound?
A: Its TGI is > 100 µM.

Q: And the TGI [10]?
A: Its TGI is > 100 µM.

Q: Which results are given for COc1ccc(COCC[C@H](C)OC2OC(CO[Si](C)(C)C(C)(C)C)C(O)C(O)C2O)cc1 (stereo partly drawn)?
A: TGI [1]: > 100 µM; TGI [2]: > 100 µM; TGI [3]: > 100 µM; TGI [4]: > 100 µM; TGI [5]: > 100 µM; TGI [6]: > 100 µM; TGI [7]: > 100 µM; TGI [11]: > 100 µM; TGI [8]: > 100 µM; TGI [9]: > 100 µM; TGI [10]: > 100 µM

Q: With COc1ccc2nc3c4c(nccc4c2c1)-c1ncccc1C3=O as the compound, how does the TGI [1] read?
A: The TGI was 1.28 µM.

Q: And the TGI [2]?
A: The TGI was 1.14 µM.

Q: What about the TGI [3] of the same compound?
A: Its TGI is 6.55 µM.

Q: And the TGI [4]?
A: Its TGI is 0.805 µM.

Q: What about the TGI [5] of the same compound?
A: Its TGI is 0.208 µM.

Q: What about the TGI [6] of the same compound?
A: The TGI was 0.298 µM.

Q: What about the TGI [7] of the same compound?
A: Its TGI is 0.0189 µM.

Q: What about the TGI [11] of the same compound?
A: The TGI was 0.278 µM.

Q: And the TGI [8]?
A: The TGI was 0.174 µM.

Q: And the TGI [9]?
A: Its TGI is 0.402 µM.

Q: And the TGI [10]?
A: Its TGI is 1.43 µM.

Q: For O=C(Nc1ccccc1)OCCN=c1c2ccccc2ccc2ccccc12, which TGI [1] is on record?
A: The TGI was 51.4 µM.

Q: What about the TGI [2] of the same compound?
A: The TGI was 38.8 µM.

Q: What about the TGI [3] of the same compound?
A: The TGI was 84 µM.

Q: What about the TGI [4] of the same compound?
A: Its TGI is 25.1 µM.

Q: And the TGI [5]?
A: Its TGI is > 100 µM.

Q: And the TGI [6]?
A: Its TGI is > 100 µM.

Q: And the TGI [7]?
A: The TGI was 54.5 µM.

Q: And the TGI [11]?
A: Its TGI is 39 µM.

Q: What about the TGI [8] of the same compound?
A: The TGI was 61.8 µM.

Q: What about the TGI [9] of the same compound?
A: Its TGI is > 100 µM.

Q: And the TGI [10]?
A: Its TGI is 29.1 µM.
